# Assay results published in ChEMBL document CHEMBL1139004, “SAR and inhibitor complex structure determination of a novel class of potent and specific Aurora kinase inhibitors” (Bioorg Med Chem Lett, 2006).
# pIC50: −log10 of the molar value.
# Experiments:
# Aurora kinase A = biological target: T1, Aurora kinase A (Homo sapiens, UniProt O14965); assay: Inhibitory activity against Aurora A
# T1 sequence (O14965 whole entry): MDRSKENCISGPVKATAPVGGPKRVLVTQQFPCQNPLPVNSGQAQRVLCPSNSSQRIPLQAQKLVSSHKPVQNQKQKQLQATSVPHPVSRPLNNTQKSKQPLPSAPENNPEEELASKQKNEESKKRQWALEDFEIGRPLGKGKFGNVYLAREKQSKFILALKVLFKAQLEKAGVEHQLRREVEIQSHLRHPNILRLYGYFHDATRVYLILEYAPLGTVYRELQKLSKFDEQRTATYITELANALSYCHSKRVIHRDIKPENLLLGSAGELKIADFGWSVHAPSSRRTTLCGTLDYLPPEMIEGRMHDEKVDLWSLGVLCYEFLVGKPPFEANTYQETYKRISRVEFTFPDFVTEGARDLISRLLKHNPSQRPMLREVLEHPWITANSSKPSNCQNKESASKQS
# [1] = Aqueous solubility of the compound
# MCF7 = assay: Antiproliferative activity against MCF7 cell line; format: functional, cell-based; details: Homo sapiens
# [2] = Distribution coefficient of the compound, log D at pH 7.4; format: physicochemical; details: octanol/water
# [3] = Percent of unbound ligand in rat plasma; format: ADME, organism-based
SMILES,pIC50 (Aurora kinase A),solubility [1],pIC50 (MCF7),logD [2],fraction unbound [3]
COc1cc2c(Nc3ncc(NC(=O)c4ccccc4)cn3)ncnc2cc1OCCCN1CCOCC1,6.20,,,,
COc1cc2c(Nc3cnc(NC(=O)c4ccccc4)nc3)ncnc2cc1OC[C@@H](O)CN1CCCCC1,,1500 µM,,,
COc1cc2c(Nc3ccc(NC(=O)c4ccccc4)cc3)ncnc2cc1OCCCN1CCOCC1,,2.5 µM,6.70,,0.003
COc1cc2ncnc(Nc3ccc(NC(=O)c4ccccc4)cc3)c2cc1OC [ANILINOQUINAZOLINE1],6.41,,5.90,3.7,
COc1cc2c(Nc3cnc(NC(=O)c4ccncc4)nc3)ncnc2cc1OCCCN1CCOCC1,6.16,,,,
CCCN(CCC)S(=O)(=O)c1ccc(C(=O)Nc2ncc(Nc3ncnc4cc(OCCCN5CCOCC5)c(OC)cc34)cn2)cc1,5.41,,,,

# Other lines, results leading:
pIC50 (Aurora kinase A),solubility [1],pIC50 (MCF7),logD [2],fraction unbound [3],SMILES
7.77,,,,,CCCCC(=O)Nc1ncc(Nc2ncnc3cc(OCCCN4CCOCC4)c(OC)cc23)cn1
8.52,,6.68,2.7,0.045,COc1cc2c(Nc3cnc(NC(=O)c4ccccc4)nc3)ncnc2cc1OCCCN1CCOCC1
9.82,,7.70,,0.004,COc1cc2c(Nc3cnc(NC(=O)c4ccc(F)c(Cl)c4)nc3)ncnc2cc1OCCCN1CCOCC1
9.10,3600 µM,7.62,,,COc1cc2c(Nc3cnc(NC(=O)c4cccc(Cl)c4)nc3)ncnc2cc1OCCCN1CCCCC1
> 10.00,,7.10,,,COc1cc2c(Nc3cnc(NC(=O)c4cccc(Cl)c4)nc3)ncnc2cc1OCCCN1CCOCC1
7.15,,,,,COc1cc2c(Nc3cnc(NC(=O)c4ccc(C)c(Br)c4)nc3)ncnc2cc1OCCCN1CCOCC1
7.07,,,,,CCc1ccc(C(=O)Nc2ncc(Nc3ncnc4cc(OCCCN5CCOCC5)c(OC)cc34)cn2)cc1
